The values that follow are results of earlier work, collected in patent US20250082624A1, “METHODS OF TREATING COGNITIVE IMPAIRMENT” (NeuroTherapia, Inc., priority 2023, published 2025).

The test system of this series is rats. To be noted: intracerebroventricular administration; cited from earlier work.

For the compound `Cc1c(C(=O)c2cccc3ccccc23)c2cccc3c2n1[C@H](CN1CCOCC1)CO3` [WIN 55,212-2], the “Aβ-induced microglial activation, cognitive impairment, loss of neuronal markers” value was “prevented A13-induced microglial activation, cognitive impairment, and loss of neuronal markers”.
